Tests used:
Type in all cases: functional, cell-based
[1] = Anticancer activity against human NCI-H1944 cells by HTS assay
[2] = Anticancer activity against human SKBR cells by HTS assay
HOP-62 = assay: Anticancer activity against human HOP62 cells by HTS assay
HeLa = assay: Anticancer activity against human HeLa cells by HTS assay
[3] = Anticancer activity against human LOXIMVI cells by HTS assay; conditions: LOX IMVI
[4] = Anticancer activity against human […] cells by HTS assay
[5] = Anticancer activity against human H1299 cells by HTS assay; conditions: NCI-H1299
NCI-H1792 = assay: Anticancer activity against human NCI-H1792 cells by HTS assay
M14 = assay: Anticancer activity against human M14 cells by HTS assay
[6] = Anticancer activity against human M4E cells by HTS assay
[7] = Anticancer activity against human 292G cells by HTS assay
NCI-H522 = assay: Anticancer activity against human NCI-H522 cells by HTS assay
NCI-H157 = assay: Anticancer activity against human NCI-H157 cells by HTS assay
[8] = Anticancer activity against human H460 cells by HTS assay; conditions: NCI-H460
A549 = assay: Anticancer activity against human A549 cells by HTS assay
[9] = Anticancer activity against human Calu1 cells by HTS assay; conditions: Calu-1

SMILES	IC50 [1] [µM]	IC50 [2] [µM]	IC50 (HOP-62) [µM]	IC50 (HeLa) [µM]	IC50 [3] [µM]	IC50 [4] [µM]	IC50 [5] [µM]	IC50 (NCI-H1792) [µM]	IC50 (M14) [µM]	IC50 [6] [µM]	IC50 [7] [µM]	IC50 (NCI-H522) [µM]	IC50 (NCI-H157) [µM]	IC50 [8] [µM]	IC50 (A549) [µM]	IC50 [9] [µM]
COc1cc(O)c2c(=O)c(OC)c(-c3ccc(O)c(O)c3)oc2c1	0.46	5.28	13.2	11.1	24.1	> 50	15.6	19.7	21.7	21.3	24	> 50	13	7.02	5.4	39.6
CCOc1cc(O)c2c(=O)c(OCC)c(-c3ccc(OCC)c(OCC)c3)oc2c1	> 50	> 50	44	> 50	19.4	> 50	24.9	> 50	> 50	21.4	> 50	> 50	> 50	22.1	47.6	> 50
CCOc1c(-c2ccc(O)c(O)c2)oc2cc(O)cc(O)c2c1=O	0.39	> 50	> 50	> 50	> 50	> 50	> 50	> 50	> 50	> 50	> 50	> 50	> 50	> 50	> 50	> 50
CCCOc1c(-c2ccc(O)c(O)c2)oc2cc(O)cc(O)c2c1=O	0.91	0.45	2.44	0.57	2.38	3.02	6.03	3.13	2.26	1.9	2.11	1.4	0.8	1.69	0.79	7.08
CCCCOc1c(-c2ccc(O)c(O)c2)oc2cc(O)cc(O)c2c1=O	7.04	9.18	21	10.6	26.3	31.7	> 50	4.57	25.6	18.9	28.9	12.6	6.32	19.7	13.4	> 50
CCOc1ccc(-c2oc3cc(O)cc(O)c3c(=O)c2O)cc1O	1.78	3.19	4.45	1.2	1.14	2.85	1.77	1	0.94	6.18	4.11	22.1	0.67	1.03	1.24	1.5
CCCOc1ccc(-c2oc3cc(O)cc(O)c3c(=O)c2O)cc1O	21.4	18	21.9	21.6	> 50	31.1	46.5	13.3	25.4	27.4	28.5	49.5	10.2	12.2	13.9	26.5
CCCCOc1ccc(-c2oc3cc(O)cc(O)c3c(=O)c2O)cc1O	5.85	6.72	12.4	9.48	28.8	18.2	16	10.5	19.4	17.1	9.89	17.7	6.1	6.84	5.44	25.3
CCOc1cc(O)c2c(=O)c(OCC)c(-c3ccc(O)c(O)c3)oc2c1	10.1	6.26	10.6	0.91	15.2	29.1	12.8	2.51	20.3	20.4	17.2	> 50	8.09	5.25	1.19	37.4
CCCOc1cc(O)c2c(=O)c(OCCC)c(-c3ccc(O)c(O)c3)oc2c1	> 50	34.5	47.2	47	> 50	> 50	> 50	30.6	> 50	> 50	> 50	> 50	40.9	31.1	26.2	31.9
CCCCOc1cc(O)c2c(=O)c(OCCCC)c(-c3ccc(O)c(O)c3)oc2c1	1.17	4.58	4.68	6.09	2.55	8.92	5.05	6.03	3.47	11.2	8.75	> 50	5.92	3.05	1.13	5.46
CCOc1cc(O)c2c(=O)c(O)c(-c3ccc(OCC)c(O)c3)oc2c1	42.4	> 50	30.2	20.2	49.4	25.5	21.8	> 50	> 50	> 50	> 50	7.21	> 50	9.7	22.6	> 50
CCCOc1cc(O)c2c(=O)c(O)c(-c3ccc(OCCC)c(O)c3)oc2c1	4.42	4.72	3.28	5.18	3.68	5.63	4.84	3.63	7.61	5.77	5.31	8.14	0.84	1.14	4.02	9.39
CCCCOc1cc(O)c2c(=O)c(O)c(-c3ccc(OCCCC)c(O)c3)oc2c1	0.56	4.39	4.43	0.87	2.36	15.9	4.54	3.09	9.35	6.29	17.7	35.6	0.39	3.16	2.06	6.21
CCOc1cc(O)c2c(=O)c(OCC)c(-c3ccc(OCC)c(O)c3)oc2c1	4.72	6.66	36.3	14.6	> 50	> 50	48.5	> 50	> 50	18	> 50	> 50	> 50	15.6	22.6	> 50
CCCOc1cc(O)c2c(=O)c(OCCC)c(-c3ccc(OCCC)c(O)c3)oc2c1	4.75	12	36	12.9	> 50	> 50	22.8	> 50	34	48.2	> 50	> 50	> 50	28.8	18.6	> 50
CCCCOc1cc(O)c2c(=O)c(OCCCC)c(-c3ccc(OCCCC)c(O)c3)oc2c1	> 50	> 50	> 50	6.62	> 50	> 50	> 50	> 50	> 50	> 50	> 50	> 50	> 50	> 50	31.5	> 50
CCCOc1cc(O)c2c(=O)c(OCCC)c(-c3ccc(OCCC)c(OCCC)c3)oc2c1	> 50	> 50	> 50	> 50	> 50	> 50	> 50	> 50	> 50	> 50	> 50	> 50	> 50	> 50	47.9	> 50
CCCCOc1cc(O)c2c(=O)c(OCCCC)c(-c3ccc(OCCCC)c(OCCCC)c3)oc2c1	> 50	> 50	> 50	> 50	> 50	> 50	> 50	> 50	> 50	> 50	> 50	> 50	> 50	> 50	48.4	> 50
COc1c(-c2ccc(O)c(O)c2)oc2cc(O)cc(O)c2c1=O [3-O-METHYLQUERCETIN]	23.6	13.9	35.5	6.09	> 50	> 50	46.8	24.1	> 50	38.6	49.5	> 50	18.7	9.91	8.14	> 50

— ChEMBL document CHEMBL3352654, “Synthesis, biological evaluation and SAR analysis of O-alkylated analogs of quercetin for anticancer” (Bioorg Med Chem Lett, 2014)
